Laboratory results published in patent US10015966B2, “Fungicidal pyrazole mixtures” (E I DU PONT DE NEMOURS AND COMPANY, priority 2012, dated 2018).

Legend:
Assay type in all cases: in vivo
Alternaria solani = experiment: Test B: preventive spray on tomato seedlings, tomato early blight, visual disease rating; conditions: 200 ppm test suspension
Description: General protocol for preparing test suspensions for Tests A-I: the test compounds were first dissolved in acetone in an amount equal to 3% of the final volume and then suspended at the desired concentration (in ppm) in acetone and purified water (50/50 mix by volume) containing 250 ppm of the surfactant Trem® 014 (polyhydric alcohol esters). The resulting test suspensions were then used in Tests A-I. Each test was conducted in triplicate, and the results were averaged. Spraying a 200 ppm test suspension to the point of run-off on the test plants was the equivalent of a rate of about 800 g/ha. Unless otherwise indicated, the rating values indicate a 200 ppm test suspension was used. (An asterisk “*” next to the rating value indicates a 40 ppm test suspension was used.) The test suspension was sprayed to the point of run-off on tomato seedlings. The following day the seedlings were inoculated with a spore suspension of Alternaria solani (the causal agent of tomato early blight) and incubated in a saturated atmosphere at 27° C. for 48 h, and then moved to a growth chamber at 20° C. for 5 days, after which time visual disease ratings were made. Results for Tests A-I are given in Table A. In the Table, a rating of 100 indicates 100% disease control and a rating of 0 indicates no disease control (relative to the controls). A hyphen (-) indicates no test results.

Septoria tritici = experiment: Test F: preventive spray on wheat seedlings, wheat leaf blotch, visual disease rating; conditions: Zymoseptoria tritici, 200 ppm test suspension
Description: General protocol for preparing test suspensions for Tests A-I: the test compounds were first dissolved in acetone in an amount equal to 3% of the final volume and then suspended at the desired concentration (in ppm) in acetone and purified water (50/50 mix by volume) containing 250 ppm of the surfactant Trem® 014 (polyhydric alcohol esters). The resulting test suspensions were then used in Tests A-I. Each test was conducted in triplicate, and the results were averaged. Spraying a 200 ppm test suspension to the point of run-off on the test plants was the equivalent of a rate of about 800 g/ha. Unless otherwise indicated, the rating values indicate a 200 ppm test suspension was used. (An asterisk “*” next to the rating value indicates a 40 ppm test suspension was used.) The test suspension was sprayed to the point of run-off on wheat seedlings. The following day the seedlings were inoculated with a spore suspension of Septoria tritici (the causal agent of wheat leaf blotch) and incubated in saturated atmosphere at 24° C. for 48 h. and then the seedlings were moved to a growth chamber at 20° C. for 19 additional days, after which time visual disease ratings were made. Results for Tests A-I are given in Table A. In the Table, a rating of 100 indicates 100% disease control and a rating of 0 indicates no disease control (relative to the controls). A hyphen (-) indicates no test results.

[1] = test system: Blumeria graminis f. sp. tritici; experiment: Test I: preventive spray on wheat seedlings, wheat powdery mildew, visual disease rating; conditions: 192 h, 200 ppm test suspension
Description: General protocol for preparing test suspensions for Tests A-I: the test compounds were first dissolved in acetone in an amount equal to 3% of the final volume and then suspended at the desired concentration (in ppm) in acetone and purified water (50/50 mix by volume) containing 250 ppm of the surfactant Trem® 014 (polyhydric alcohol esters). The resulting test suspensions were then used in Tests A-I. Each test was conducted in triplicate, and the results were averaged. Spraying a 200 ppm test suspension to the point of run-off on the test plants was the equivalent of a rate of about 800 g/ha. Unless otherwise indicated, the rating values indicate a 200 ppm test suspension was used. (An asterisk “*” next to the rating value indicates a 40 ppm test suspension was used.) The test suspension was sprayed to the point of run-off on wheat seedlings. The following day the seedlings were inoculated with a spore dust of Blumeria graminis f. sp. tritici (also known as Erysiphe graminis f. sp. tritici, the causal agent of wheat powdery mildew) and incubated in a growth chamber at 20° C. for 8 days, after which time visual disease ratings were made. Results for Tests A-I are given in Table A. In the Table, a rating of 100 indicates 100% disease control and a rating of 0 indicates no disease control (relative to the controls). A hyphen (-) indicates no test results.

Septoria nodorum = experiment: Test E: preventive spray on wheat seedlings, Septoria glume blotch, visual disease rating; conditions: 200 ppm test suspension, preventive spray
Description: General protocol for preparing test suspensions for Tests A-I: the test compounds were first dissolved in acetone in an amount equal to 3% of the final volume and then suspended at the desired concentration (in ppm) in acetone and purified water (50/50 mix by volume) containing 250 ppm of the surfactant Trem® 014 (polyhydric alcohol esters). The resulting test suspensions were then used in Tests A-I. Each test was conducted in triplicate, and the results were averaged. Spraying a 200 ppm test suspension to the point of run-off on the test plants was the equivalent of a rate of about 800 g/ha. Unless otherwise indicated, the rating values indicate a 200 ppm test suspension was used. (An asterisk “*” next to the rating value indicates a 40 ppm test suspension was used.) The test suspension was sprayed to the point of run-off on wheat seedlings. The following day the seedlings were inoculated with a spore suspension of Septoria nodorum (the causal agent of Septoria glume blotch) and incubated in a saturated atmosphere at 24° C. for 48 h, and then moved to a growth chamber at 20° C. for 9 days, after which time visual disease ratings were made. Results for Tests A-I are given in Table A. In the Table, a rating of 100 indicates 100% disease control and a rating of 0 indicates no disease control (relative to the controls). A hyphen (-) indicates no test results.

[2] = test system: Puccinia recondita f. sp. tritici; experiment: Test H: preventive spray on wheat seedlings, wheat leaf rust, visual disease rating; conditions: 200 ppm test suspension
Description: General protocol for preparing test suspensions for Tests A-I: the test compounds were first dissolved in acetone in an amount equal to 3% of the final volume and then suspended at the desired concentration (in ppm) in acetone and purified water (50/50 mix by volume) containing 250 ppm of the surfactant Trem® 014 (polyhydric alcohol esters). The resulting test suspensions were then used in Tests A-I. Each test was conducted in triplicate, and the results were averaged. Spraying a 200 ppm test suspension to the point of run-off on the test plants was the equivalent of a rate of about 800 g/ha. Unless otherwise indicated, the rating values indicate a 200 ppm test suspension was used. (An asterisk “*” next to the rating value indicates a 40 ppm test suspension was used.) The test suspension was sprayed to the point of run-off on wheat seedlings. The following day the seedlings were inoculated with a spore suspension of Puccinia recondita f. sp. tritici (the causal agent of wheat leaf rust) and incubated in a saturated atmosphere at 20° C. for 24 h, and then moved to a growth chamber at 20° C. for 6 days, after which time visual disease ratings were made. Results for Tests A-I are given in Table A. In the Table, a rating of 100 indicates 100% disease control and a rating of 0 indicates no disease control (relative to the controls). A hyphen (-) indicates no test results.

Row | SMILES | Test B rating (% disease control) (Alternaria solani) | pest or weed control at 200 ppm (Septoria tritici) | pest or weed control at 200 ppm [1] | Test E rating (% disease control) (Septoria nodorum) | pest or weed control at 200 ppm [2]
1 | Cc1nn(C)c(Nc2ccccc2F)c1-c1ccc(F)cc1Cl [Compound 1, 4-(2-chloro-4-fluorophenyl)-N-(2-fluorophenyl)-1,3-dimethyl-1H-pyrazol-5-amine] | 93% | 100% | 100% | 0% | 99%
2 | Cc1nn(C)c(Nc2c(F)cccc2F)c1-c1ccc(F)cc1Cl [Compound 2, 4-(2-chloro-4-fluorophenyl)-N-(2,6-difluorophenyl)-1,3-dimethyl-1H-pyrazol-5-amine] | 100% | 100% | 100% | 87% | 99%
3 | Cc1nn(C)c(Nc2c(F)cccc2Cl)c1-c1ccc(F)cc1Cl [Compound 3, 4-(2-chloro-4-fluorophenyl)-N-(2-chloro-6-fluorophenyl)-1,3-dimethyl-1H-pyrazol-5-amine] | 100% | 100% | 99% | 99% | 100%
